Experiments:
[1] = ABTS radical cation assay
Protocol: The ABTS assay was based on the method described by Re et al.. For the generation of ABTS^•+ radicals, sodium persulfate (2.45 mM) aqueous solution was mixed with ABTS (7 mM) and incubated overnight in the dark to obtain a dark-colored solution. Stock solution of ABTS^•+ was then diluted by adding pure methanol (100%) to obtain an absorbance of 0.70 (±0.02) at 734 nm at 30 °C. To obtain more repetition, the ABTS assay was performed using a microplate reader (ThermoLabsystem, Finland). An aliquot of 2 µL of the tested compound (EA or analogue) was added to 198 µL of ABTS^•+, and the decrease in absorbance was monitored at 740 nm after 30 min [32]. During this reaction, the blue-green ABTS radical cation is converted back into its colorless neutral form in the presence of the potential antioxidant molecule. A control consisted of 2 µL of DMSO in 198 µL of ABTS^•+ solution. The reducing capacity was determined according to the formula:% inhibition = (Acontrol − ASample) × 100/AControl(1)

[2] = system: PMA-activated neutrophils; experiment: ROS production by PMA-activated neutrophils (L012 chemiluminescence); format: cell-based, equine
Protocol: Equine neutrophils were isolated from whole blood using EDTA disodium salt (1.6 mg/mL) as an anticoagulant. The blood was drawn from the jugular vein of healthy horses bred and fed under identical conditions without medical treatment. All the experiments were realized with the approval of the ethics committee of the Faculty of Veterinary Medicine of the University of Liege (agreement number 1474). Briefly, the neutrophils were isolated at room temperature (18–22 °C) by centrifugation (400× g; 45 min; 20 °C) on a discontinuous Percoll density gradient according to the method previously described. The cells were gently collected and washed with two volumes of physiological saline solution. After the supernatant removal, the cell pellets were re-suspended in 2 mL PBS and counted for further use.
The ROS produced by PMA-activated neutrophils were measured by L012-enhanced chemiluminescence (CL) under an adaptation of the method previously described by Benbarek et al. and Derochette et al.. Neutrophil suspensions were distributed in the wells (neutrophils/well, 143 μL PBS) of a 96-well microtiter plate (White Combiplate 8, Fisher Scientific) and incubated for 10 min at 37 °C with 2 μL of EA or analogue to reach final concentrations of 10^−8 M, 10^−7 M, 10^−6 M, and 10^−5 M. After incubation, 25 μL CaCl2 (10 mM) and 20 μL L-012 (10^−4 M) were added into the wells (final volume of 200 μL). […] A control was performed with neutrophils activated with PMA (positive Ctrl) in the presence of PBS instead of ellagic acid analogue. Another control was performed with PMA-activated neutrophils in the presence of the vehicle solution of ellagic acid or analogue (1% DMSO) (DMSO, final concentration) and was taken as 100% CL response. The negative control was performed with unstimulated neutrophils (NA) with the CL probe alone. The inhibition percentage was calculated using a similar formula (Equation (1)) as described above.

[3] = DPPH radical scavenging assay
Protocol: The DPPH assay was performed according to the method developed by Brand-Williams et al., though slightly modified. A solution of 1 mM DPPH in absolute methanol was stirred for 40 min. Absorbance of the solution was adjusted to 0.650 ± 0.020 at 517 nm using fresh absolute methanol. For replicates, the DPPH assay was performed using a microplate reader. For this, 2 µL of EA taken as a standard or sample (EA analogue) were mixed with 198 µL of DPPH solution and incubated for 30 min in the dark covered with aluminum foil. When reacting with an antioxidant, the DPPH• radical is converted into DPPH, and its color changes from purple to yellow. The antioxidant effect may be easily evaluated by observing the decrease in visible absorption. The absorbance decrease was monitored at 510 nm for 30 min with a Multiskan Ascent 96-plate reader (ThermoLabsystem, Finland). A control consisted of 2 µL of DMSO in 198 µL of DPPH solution. A similar formula (Equation (1)) was applied to determine the DPPH radical-scavenging activity.

IC50 [1] [µM] | IC50 [3] [µM] | Compound | ABTS activity (in words) [1] | Inhibition of neutrophil ROS production (in words) [2] | Inhibition of neutrophil ROS production ([2]; highest concentration) [%] | DPPH inhibition percentage ([3]; at the highest concentration) [%]
– | – | CN(C)C(=O)Oc1cc2c(=O)oc3c(OC(=O)N(C)C)c(OC(=O)N(C)C)cc4c(=O)oc(c1OC(=O)N(C)C)c2c34 [compound 6, Sevellagic acid] | no significant activity | less active than all the other tested compounds | 58 | −3
6.56 ± 0.37 | 5.22 ± 0.05 | CCOC1Oc2cc(C(=O)OC)cc(O)c2O1 (stereo not shown) [compound 11, methyl 2-ethoxy-7-hydroxybenzo[d][1,3]dioxole-5-carboxylate] | – | good inhibitory effect | – | –
